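Cultured in 96-well plates, cells were exposed to test compound for 48 hours across five concentrations. Here, GI50 denotes the concentration required for 50% inhibition of growth.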 Activity calls are given as the source filed them. Cut-off read from the data, not from the text of the source: active = GI50 up to about 1.1 µM and inactive = higher.
Tests used:
Assay in all cases: inhibition of tumour cell growth, NCI panel, 48 h
786-0 = system: 786-0
A498 = system: A498
A549 = system: A549
ACHN = system: ACHN
CAKI-1 = system: CAKI-1
CCRF-CEM = system: CCRF-CEM
COLO 205 = system: COLO 205
DLD-1 = system: DLD-1
DMS-273 = system: DMS-273
EKVX = system: EKVX
HCC 2998 = system: HCC 2998
HCT-116 = system: HCT-116
HCT-15 = system: HCT-15
HOP-18 = system: HOP-18
HOP-62 = system: HOP-62
HOP-92 = system: HOP-92
HT-29 = system: HT-29
IGROV-1 = system: IGROV-1
K562 = system: K562
KM-20L2 = system: KM-20L2
KM12 = system: KM12
LOX IMVI = system: LOX IMVI
LXFL 529 = system: LXFL 529
M14 = system: M14
M19-MEL = system: M19-MEL
MOLT-4 = system: MOLT-4
Malme-3M = system: Malme-3M
NCI-H226 = system: NCI-H226
NCI-H23 = system: NCI-H23
NCI-H460 = system: NCI-H460
NCI-H522 = system: NCI-H522
OVCAR-3 = system: OVCAR-3
OVCAR-4 = system: OVCAR-4
OVCAR-5 = system: OVCAR-5
OVCAR-8 = system: OVCAR-8
RPMI-8226 = system: RPMI-8226
RXF 393 = system: RXF 393
RXF 631 = system: RXF 631
SF-268 = system: SF-268
SF-295 = system: SF-295
SF-539 = system: SF-539
SK-MEL-28 = system: SK-MEL-28
SK-MEL-2 = system: SK-MEL-2
SK-MEL-5 = system: SK-MEL-5
SK-OV-3 = system: SK-OV-3
SN12C = system: SN12C
SNB-19 = system: SNB-19
SNB-75 = system: SNB-75
SNB-78 = system: SNB-78
SR = system: SR
SW-620 = system: SW-620
TK-10 = system: TK-10
U-251 = system: U-251
UACC-257 = system: UACC-257
UACC-62 = system: UACC-62
UO-31 = system: UO-31
DMS-114 = system: DMS-114
HL-60 = system: HL-60
BT-549 = system: BT-549
DU-145 = system: DU-145
Hs-578T = system: Hs-578T
MCF7 = system: MCF7
MDA-MB-231 = system: MDA-MB-231
MDA-MB-435 = system: MDA-MB-435
MDA-N = system: MDA-N
PC-3 = system: PC-3
T47D = system: T47D

Measured: GI50

CC(=O)OC1C(COC(N)=O)OC(n2c(-c3ccc(C)cc3)cc(-c3ccccc3)c(C#N)c2=O)C(OC(C)=O)C1OC(C)=O (configuration not stated)
inactive: 786-0 > 100 µM | A498 > 100 µM | A549 > 100 µM | ACHN > 100 µM | CAKI-1 > 100 µM | CCRF-CEM > 100 µM | COLO 205 > 100 µM | DLD-1 > 100 µM | DMS-273 > 100 µM | EKVX > 100 µM | HCC 2998 53.7 µM | HCT-116 > 100 µM | HOP-18 > 100 µM | HOP-62 > 100 µM | HOP-92 9.86 µM | HT-29 > 100 µM | IGROV-1 > 100 µM | K562 > 100 µM | KM-20L2 > 100 µM | KM12 > 100 µM | LOX IMVI > 100 µM | LXFL 529 > 100 µM | M14 > 100 µM | M19-MEL > 100 µM | MOLT-4 > 100 µM | Malme-3M > 100 µM | NCI-H226 > 100 µM | NCI-H23 > 100 µM | NCI-H460 96.2 µM | NCI-H522 > 100 µM | OVCAR-3 > 100 µM | OVCAR-4 > 100 µM | OVCAR-5 > 100 µM | OVCAR-8 > 100 µM | RPMI-8226 > 100 µM | RXF 393 > 100 µM | RXF 631 > 100 µM | SF-268 > 100 µM | SF-295 > 100 µM | SF-539 > 100 µM | SK-MEL-28 > 100 µM | SK-MEL-2 > 100 µM | SK-MEL-5 > 100 µM | SK-OV-3 > 100 µM | SN12C > 100 µM | SNB-19 > 100 µM | SNB-75 44 µM | SNB-78 > 100 µM | SR > 100 µM | SW-620 > 100 µM | TK-10 > 100 µM | U-251 > 100 µM | UACC-257 > 100 µM | UACC-62 > 100 µM | UO-31 71.9 µM
> 100 µM: HCT-15

Cc1cc(=O)oc2cc(OCc3nc4ccccc4c(=O)n3-c3ccccc3)ccc12
inactive: 786-0 38.4 µM | A498 > 100 µM | A549 > 100 µM | ACHN > 100 µM | CAKI-1 > 100 µM | CCRF-CEM > 100 µM | COLO 205 > 100 µM | DLD-1 > 100 µM | DMS-114 > 100 µM | DMS-273 > 100 µM | EKVX > 100 µM | HCC 2998 > 100 µM | HCT-116 > 100 µM | HL-60 > 100 µM | HOP-18 > 100 µM | HOP-62 97.7 µM | HOP-92 28.1 µM | HT-29 > 100 µM | IGROV-1 > 100 µM | K562 > 100 µM | KM-20L2 > 100 µM | KM12 > 100 µM | LOX IMVI > 100 µM | LXFL 529 > 100 µM | M14 > 100 µM | M19-MEL > 100 µM | MOLT-4 > 100 µM | Malme-3M > 100 µM | NCI-H226 > 100 µM | NCI-H23 > 100 µM | NCI-H460 > 100 µM | NCI-H522 > 100 µM | OVCAR-3 > 100 µM | OVCAR-4 > 100 µM | OVCAR-5 > 100 µM | OVCAR-8 45.1 µM | RPMI-8226 > 100 µM | RXF 393 34 µM | RXF 631 > 100 µM | SF-268 > 100 µM | SF-295 58.2 µM | SF-539 > 100 µM | SK-MEL-28 > 100 µM | SK-MEL-2 > 100 µM | SK-MEL-5 > 100 µM | SK-OV-3 53.6 µM | SN12C > 100 µM | SNB-19 27.5 µM | SNB-75 20.7 µM | SW-620 > 100 µM | TK-10 > 100 µM | U-251 54.7 µM | UACC-62 > 100 µM
> 100 µM: HCT-15

CN(C)CCNC(=O)c1cccc2nc3c(ccc4ccccc43)nc12
1.61 µM: HCT-15
active: LOX IMVI 1.08 µM | MCF7 0.476 µM | MOLT-4 0.327 µM | NCI-H460 0.479 µM | RXF 631 1.02 µM | SF-268 0.675 µM | SR 0.362 µM | SW-620 1.1 µM
inactive: 786-0 2.91 µM | A498 2.95 µM | A549 1.21 µM | ACHN 1.41 µM | BT-549 10.6 µM | CAKI-1 3.37 µM | CCRF-CEM 1.16 µM | COLO 205 1.6 µM | DLD-1 1.79 µM | DMS-114 2.69 µM | DMS-273 1.54 µM | DU-145 4.85 µM | EKVX 5.74 µM | HCC 2998 1.98 µM | HCT-116 1.75 µM | HL-60 1.17 µM | HOP-18 6.53 µM | HOP-62 2.25 µM | HOP-92 3.61 µM | HT-29 1.56 µM | Hs-578T 3.62 µM | IGROV-1 2.9 µM | K562 1.52 µM | KM-20L2 1.51 µM | KM12 2.09 µM | LXFL 529 2.51 µM | M14 2.49 µM | M19-MEL 1.56 µM | MDA-MB-231 1.81 µM | MDA-MB-435 3.33 µM | MDA-N 1.72 µM | Malme-3M 1.56 µM | NCI-H226 2.9 µM | NCI-H23 3.9 µM | NCI-H522 4.22 µM | OVCAR-3 7.89 µM | OVCAR-4 2.21 µM | OVCAR-5 4.55 µM | OVCAR-8 1.73 µM | PC-3 2.79 µM | RPMI-8226 1.91 µM | RXF 393 3.2 µM | SF-295 2.56 µM | SF-539 1.8 µM | SK-MEL-28 2.05 µM | SK-MEL-2 1.91 µM | SK-MEL-5 1.76 µM | SK-OV-3 5.42 µM | SN12C 2.48 µM | SNB-19 5.06 µM | SNB-75 3.9 µM | SNB-78 5.16 µM | T47D 6.11 µM | TK-10 7.93 µM | U-251 1.47 µM | UACC-257 1.74 µM | UACC-62 2.45 µM | UO-31 3.38 µM
